According to patent US11691962B2 (eXIthera Pharmaceuticals, Inc., priority 2018, dated 2023):

What was measured:
Format in all cases: biochemical
Thrombin = Thrombin (Homo sapiens (Human), UniProt P00734); experiment: Dose response assay for protease inhibitors: thrombin; settings: selectivity, thrombin over Factor XIa
Protocol: (§1) • Assay buffer: 20 mM Hepes, pH 7.4; 150 mM NaCl; 0.02% Tween 20 • Compounds: 10 mM stocks in DMSO • Substrate: 20 mM Glp-Pro-Arg-AMC, 25 mg/2.3 mL H2O (store at +4° C.) [Factor XIa, thrombin, and trypsin] • 20 mM Pro-Phe-Arg-AMC (Bachem I-1295), 25 mg/2.2 mL H2O • or Boc-Leu-Gly-Arg-AMC (Bachem I-1105), 25 mg/2.07 mL H2O • (store at +4° C.) [Factor Xa] • Enzyme: Factor XIa; 0.25 μM in 50% glycerol (20 μg/mL) • Trypsin; 0.2 μM in 50% glycerol (4.8 μg/mL) • Thrombin; 0.2 μM in 50% glycerol (7.34 μg/mL) • Factor Xa; 0.2 μM in 50% glycerol (9.2 μg/mL) • These stocks are aliquoted (˜100 μL/aliquot) and stored at −20° C. Methods: • 1. Dilute the substrate to 100 μM in assay buffer (30 μL/6 mL). The enzyme is diluted to 0.5 nM just prior to use (12 μL/6 mL for Factor XIa; 15 μL/6 mL for all of the rest.) • 2. Pipette 50 μL of substrate into each well of the 96 well (12×8) microtiter plate. (Column 1 is used as the 100% activity control and receives no compound, and Column 12 is the blank and receives no enzyme.) Add an additional 46 μL to column 2. • 3. Pipette 4 μL of each compound into the appropriate well in column 2 of the plate (unknowns assayed in triplicate, standard assayed in duplicate). The final compound concentration will be […] of the stock. • 4. Serially two-fold dilute the compound by mixing the sample in column 2, removing 50 μL to the next well (column 3), mix and remove to column 4, etc. until column 11. After mixing column 11, remove 50 μL and discard. • 5. Pipette 50 μL of buffer into column 12. Initiate the reaction by adding 50 μL of enzyme solution to each well of columns 1-11 as rapidly as possible. • 6. Read the plate in a spectrophotometer (SpectraMax) at 30° C., wherein each well is measured every 60 s for 30 min. For Factor Xa assays, each well is measured every 1 min for a total of 60 min. • 7. For Factor XIa assays, the compounds are assayed, in duplicate, at 3 different starting concentrations, 20, 2, and 0.2 μM; 1:10, 1:100, and 1:1000 dilution of 10 mM stock or at 2, 0.2, and 0.02 μM; 1:100, 1:1000, and 1:10,000 dilution of 10 mM stock. Data for each concentration are combined for graphing and data fitting. • 8. Data can be used both for estimation of IC50 and for estimation of Kon.

Trypsin = experiment: Dose response assay for protease inhibitors: trypsin; settings: selectivity, trypsin over Factor XIa
Protocol: as §1

Factor Xa = Factor Xa (Homo sapiens (Human), UniProt P00742); experiment: Dose response assay for protease inhibitors: Factor Xa; settings: selectivity, Factor Xa over Factor XIa
Protocol: as §1

Factor XIa = Factor XIa (Homo sapiens (Human), UniProt P03951); experiment: Factor XIa enzyme inhibition assay (dose response, fluorogenic AMC substrate); settings: read-out: hFXIa IC50
Outline: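 Fluorogenic progress curves (30 min, 1-min reads, 30° C) were recorded for 0.25 nM FXIa cleaving 50 μM Glp-Pro-Arg-AMC in Hepes pH 7.4 buffer with NaCl and Tween 20. Compounds were serially two-fold diluted, and IC50 was fitted with a Hill equation.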

Sequence of Factor XIa (P03951 388-625): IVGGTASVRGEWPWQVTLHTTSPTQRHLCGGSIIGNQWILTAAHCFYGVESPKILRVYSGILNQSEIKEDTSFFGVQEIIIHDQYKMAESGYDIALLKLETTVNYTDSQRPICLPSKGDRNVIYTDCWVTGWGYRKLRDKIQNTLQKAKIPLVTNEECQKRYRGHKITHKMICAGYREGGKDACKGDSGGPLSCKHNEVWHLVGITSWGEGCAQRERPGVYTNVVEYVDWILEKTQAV
Sequence of Factor XIa (P03951 19-387 partner): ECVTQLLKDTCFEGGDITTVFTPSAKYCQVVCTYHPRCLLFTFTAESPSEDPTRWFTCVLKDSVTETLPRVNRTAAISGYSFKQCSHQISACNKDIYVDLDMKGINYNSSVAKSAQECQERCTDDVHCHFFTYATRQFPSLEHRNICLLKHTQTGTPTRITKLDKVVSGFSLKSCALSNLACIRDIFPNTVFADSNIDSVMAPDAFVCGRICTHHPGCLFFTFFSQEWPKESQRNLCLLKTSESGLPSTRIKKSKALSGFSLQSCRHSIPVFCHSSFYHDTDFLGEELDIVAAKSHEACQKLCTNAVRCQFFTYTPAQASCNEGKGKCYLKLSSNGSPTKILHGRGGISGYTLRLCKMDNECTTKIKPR
Sequence of Factor Xa (P00742 235-488): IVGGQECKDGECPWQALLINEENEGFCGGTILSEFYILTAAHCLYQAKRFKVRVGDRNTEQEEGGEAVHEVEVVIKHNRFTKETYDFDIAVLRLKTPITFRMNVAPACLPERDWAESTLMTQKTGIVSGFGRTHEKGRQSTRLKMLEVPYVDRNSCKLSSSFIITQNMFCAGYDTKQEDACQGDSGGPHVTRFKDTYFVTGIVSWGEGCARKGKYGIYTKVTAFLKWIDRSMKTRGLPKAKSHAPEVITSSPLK
Sequence of Factor Xa (P00742 41-179 partner): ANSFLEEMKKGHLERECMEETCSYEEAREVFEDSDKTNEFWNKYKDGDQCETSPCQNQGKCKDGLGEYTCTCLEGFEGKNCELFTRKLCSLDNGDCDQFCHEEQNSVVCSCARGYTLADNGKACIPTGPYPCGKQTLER

For `CC[C@@H](NC(=O)N1C(=O)[C@H](Cc2cc(C)nc(N)c2)[C@H]1C(=O)N(C)c1nccn1C)c1ccc(C)cc1` [Compound 1-107, (2S,3R)-3-((2-amino-6-methylpyridin-4-yl)methyl)-N2-(1-methyl-1H-imidazol-2-yl)-N1-((R)-1-(4-methylphenyl)propyl)-N2-methyl-4-oxoazetidine-1,2-dicarboxamide], the “Ratio: Thrombin/FXIa” value (Thrombin) was “H (“H” indicates 101-1000)”, the “Ratio: Trypsin/FXIa” value (Trypsin) was “G (“G” indicates 1-100)” and the “Ratio: FXa/FXIa” value (Factor Xa) was “I (“I” indicates > 500)”. It also gave an IC50 (Factor XIa) of 10 to 100 nM.
`CC[C@@H](NC(=O)N1C(=O)[C@H](Cc2cc(C)nc(N)c2)[C@H]1C(=O)N(C)c1nccn1C)c1ccc(C)c(C)c1` [Compound 1-109, (2S,3R)-3-((2-amino-6-methylpyridin-4-yl)methyl)-N2-(1-methyl-1H-imidazol-2-yl)-N1-((R)-1-(3,4-dimethylphenyl)propyl)-N2-methyl-4-oxoazetidine-1,2-dicarboxamide] was tested, and the “Ratio: Thrombin/FXIa” value (Thrombin) was “H (“H” indicates 101-1000)”, the “Ratio: Trypsin/FXIa” value (Trypsin) was “G (“G” indicates 1-100)” and the “Ratio: FXa/FXIa” value (Factor Xa) was “H (“H” indicates 101-1000)”. For the same molecule, the IC50 (Factor XIa) was under 10 nM.
With `CC[C@@H](NC(=O)N1C(=O)[C@H](Cc2cc(C)nc(N)c2)[C@H]1C(=O)N(C)c1nccn1C)c1cc(C)ccc1Cl` [Compound 1-111, (2S,3R)-3-((2-amino-6-methylpyridin-4-yl)methyl)-N2-(1-methyl-1H-imidazol-2-yl)-N1-((R)-1-(2-chloro-5-methylphenyl)propyl)-N2-methyl-4-oxoazetidine-1,2-dicarboxamide] the “Ratio: Thrombin/FXIa” value (Thrombin) was “H (“H” indicates 101-1000)”, the “Ratio: Trypsin/FXIa” value (Trypsin) was “G (“G” indicates 1-100)” and the “Ratio: FXa/FXIa” value (Factor Xa) was “H (“H” indicates 101-1000)”. The IC50 (Factor XIa) was under 10 nM.
In the case of `CC[C@@H](NC(=O)N1C(=O)[C@H](Cc2cc(C)nc(N)c2)[C@H]1C(=O)N(C)c1nccn1C)c1cc(C)ccc1F` [Compound 1-112, (2S,3R)-3-((2-amino-6-methylpyridin-4-yl)methyl)-N2-(1-methyl-1H-imidazol-2-yl)-N1-((R)-1-(2-fluoro-5-methylphenyl)propyl)-N2-methyl-4-oxoazetidine-1,2-dicarboxamide], the “Ratio: Thrombin/FXIa” value (Thrombin) is reported as “H (“H” indicates 101-1000)”, the “Ratio: Trypsin/FXIa” value (Trypsin) is reported as “G (“G” indicates 1-100)” and the “Ratio: FXa/FXIa” value (Factor Xa) is reported as “I (“I” indicates > 500)”. For the same molecule, the IC50 (Factor XIa) was 10 to 100 nM.
In the case of `CC[C@@H](NC(=O)N1C(=O)[C@H](Cc2cc(C)nc(N)c2)[C@H]1C(=O)N(C)c1nccn1C)c1ccc(C)c(Cl)c1` [Compound 1-113, (2S,3R)-3-((2-amino-6-methylpyridin-4-yl)methyl)-N2-(1-methyl-1H-imidazol-2-yl)-N1-((R)-1-(3-chloro-4-methylphenyl)propyl)-N2-methyl-4-oxoazetidine-1,2-dicarboxamide], the “Ratio: Thrombin/FXIa” value (Thrombin) is reported as “H (“H” indicates 101-1000)”, the “Ratio: Trypsin/FXIa” value (Trypsin) is reported as “G (“G” indicates 1-100)” and the “Ratio: FXa/FXIa” value (Factor Xa) is reported as “H (“H” indicates 101-1000)”. For the same molecule, the IC50 (Factor XIa) was under 10 nM.
For `CC[C@@H](NC(=O)N1C(=O)[C@H](Cc2ccnc(N)c2)[C@H]1C(=O)N(C)c1nccn1C)c1ccc(C)cc1C` [Compound 1-114, (2S,3R)-3-((2-aminopyridin-4-yl)methyl)-N2-(1-methyl-1H-imidazol-2-yl)-N1-((R)-1-(2,4-dimethylphenyl)propyl)-N2-methyl-4-oxoazetidine-1,2-dicarboxamide], the “Ratio: Thrombin/FXIa” value (Thrombin) was “H (“H” indicates 101-1000)”, the “Ratio: Trypsin/FXIa” value (Trypsin) was “G (“G” indicates 1-100)” and the “Ratio: FXa/FXIa” value (Factor Xa) was “H (“H” indicates 101-1000)”. It also gave an IC50 (Factor XIa) of under 10 nM.
In the case of `CC[C@@H](NC(=O)N1C(=O)[C@H](Cc2ccnc(N)c2)[C@H]1C(=O)N(C)c1ccn(C)n1)c1cc(F)ccc1F` [Compound 1-123, (2S,3R)-3-((2-aminopyridin-4-yl)methyl)-N2-(1-methyl-1H-pyrazol-3-yl)-N1-((R)-1-(2,5-difluorophenyl)propyl)-N2-methyl-4-oxoazetidine-1,2-dicarboxamide], the “Ratio: Thrombin/FXIa” value (Thrombin) is reported as “H (“H” indicates 101-1000)”, the “Ratio: Trypsin/FXIa” value (Trypsin) is reported as “G (“G” indicates 1-100)” and the “Ratio: FXa/FXIa” value (Factor Xa) is reported as “I (“I” indicates > 500)”. The IC50 (Factor XIa) was under 10 nM.
`CC[C@@H](NC(=O)N1C(=O)[C@H](Cc2ccnc(N)c2)[C@H]1C(=O)N(C)c1ccn(C)n1)c1cc(C)ccc1F` [Compound 1-125, (2S,3R)-3-((2-aminopyridin-4-yl)methyl)-N2-(1-methyl-1H-pyrazol-3-yl)-N1-((R)-1-(2-fluoro-5-methylphenyl)propyl)-N2-methyl-4-oxoazetidine-1,2-dicarboxamide] was tested, and the “Ratio: Thrombin/FXIa” value (Thrombin) was “H (“H” indicates 101-1000)”, the “Ratio: Trypsin/FXIa” value (Trypsin) was “G (“G” indicates 1-100)” and the “Ratio: FXa/FXIa” value (Factor Xa) was “I (“I” indicates > 500)”. The IC50 (Factor XIa) was under 10 nM.
With `CC[C@@H](NC(=O)N1C(=O)[C@H](Cc2ccnc(N)c2)[C@H]1C(=O)N(C)c1ccn(C)n1)c1ccc(C)c(C)c1` [Compound 1-127, (2S,3R)-3-((2-aminopyridin-4-yl)methyl)-N2-(1-methyl-1H-pyrazol-3-yl)-N1-((R)-1-(3,4-dimethylphenyl)propyl)-N2-methyl-4-oxoazetidine-1,2-dicarboxamide] the “Ratio: Thrombin/FXIa” value (Thrombin) was “H (“H” indicates 101-1000)”, the “Ratio: Trypsin/FXIa” value (Trypsin) was “G (“G” indicates 1-100)” and the “Ratio: FXa/FXIa” value (Factor Xa) was “H (“H” indicates 101-1000)”. For the same molecule, the IC50 (Factor XIa) was under 10 nM.
For `CC[C@@H](NC(=O)N1C(=O)[C@H](Cc2ccnc(N)c2)[C@H]1C(=O)N(C)c1ccn(C)n1)c1cccc(F)c1C` [Compound 1-128, (2S,3R)-3-((2-aminopyridin-4-yl)methyl)-N2-(1-methyl-1H-pyrazol-3-yl)-N1-((R)-1-(2-methyl-3-fluorophenyl)propyl)-N2-methyl-4-oxoazetidine-1,2-dicarboxamide], the “Ratio: Thrombin/FXIa” value (Thrombin) was “H (“H” indicates 101-1000)”, the “Ratio: Trypsin/FXIa” value (Trypsin) was “G (“G” indicates 1-100)” and the “Ratio: FXa/FXIa” value (Factor Xa) was “H (“H” indicates 101-1000)”. The IC50 (Factor XIa) was under 10 nM.
With `CC[C@@H](NC(=O)N1C(=O)[C@H](Cc2ccnc(N)c2)[C@H]1C(=O)N(C)c1ccn(C)n1)c1ccc(C)c(Cl)c1` [Compound 1-129, (2S,3R)-3-((2-aminopyridin-4-yl)methyl)-N2-(1-methyl-1H-pyrazol-3-yl)-N1-((R)-1-(3-chloro-4-methylphenyl)propyl)-N2-methyl-4-oxoazetidine-1,2-dicarboxamide] the “Ratio: Thrombin/FXIa” value (Thrombin) was “H (“H” indicates 101-1000)”, the “Ratio: Trypsin/FXIa” value (Trypsin) was “G (“G” indicates 1-100)” and the “Ratio: FXa/FXIa” value (Factor Xa) was “H (“H” indicates 101-1000)”. It also gave an IC50 (Factor XIa) of under 10 nM.
In the case of `CC[C@@H](NC(=O)N1C(=O)[C@H](Cc2ccnc(N)c2)[C@H]1C(=O)N(C)c1ccn(C)n1)c1cccc(F)c1F` [Compound 1-134, (2S,3R)-3-((2-aminopyridin-4-yl)methyl)-N2-(1-methyl-1H-pyrazol-3-yl)-N1-((R)-1-(2,3-difluorophenyl)propyl)-N2-methyl-4-oxoazetidine-1,2-dicarboxamide], the “Ratio: Thrombin/FXIa” value (Thrombin) is reported as “H (“H” indicates 101-1000)”, the “Ratio: Trypsin/FXIa” value (Trypsin) is reported as “G (“G” indicates 1-100)” and the “Ratio: FXa/FXIa” value (Factor Xa) is reported as “I (“I” indicates > 500)”. It also gave an IC50 (Factor XIa) of under 10 nM.
